Results reported in patent US12667584B2, “Adenosine analog and its use in regulating the circadian clock” (NATIONAL INSTITUTE OF BIOLOGICAL SCIENCES, BEIJING, priority 2017, dated 2026).

Biological target: T1, Ruvbl2, Bmal1, Cry1 and CDK9 interaction (Homo sapiens, UniProt Q9Y230)
T1 construct: expressed in transfected cells; host or cells: HEK293T
Experiment: Co-immunoprecipitation in transfected HEK293T cells
Format: cell-based
Settings: 100 μM
Protocol: Biotinylated Compounds Pull-down, SPR analysis and Immunoprecipitation: The interaction between biotinylated compounds and their target proteins were proceeded as follow. Every 10^8 unsynchronized U2OS cells were collected, homogenized into 2 ml lysis buffer (25 mM MOPS pH7.2, 15 mM EGTA, 15 mM MgCl2, 1 mM DTT, 60 mM β-glycerophosphate, 1 mM Na3VO4, 1 mM NaF, 1 mM phenyl phosphate, Complete Protease Inhibitor Cocktail), and sonicated 6 times for 30 s at 4° C. with a Diagenode bioruptor. After sonication, NP-40 (final 0.5%) was added, incubated 15 min on ice, centrifuged at full speed for 20 min at 4° C. The resultant supernatant was firstly incubated with Pentostatin (final concentration at 5 μg/ml) for 2 h at 4° C. with rotation, and then split into 4 groups. 200 pmol cordycepin, 200 pmol DRB, and DMSO (2 groups, final 0.1%) was added respectively and further incubated for 1 h. […] The eluted protein was analyzed with western blot. The binding affinity of cordycepin against the RUVBL2 protein was measured via SPR technology using a Biacore T200 instrument (GE Healthcare) at room temperature. […] The binding kinetics and binding affinity of cordycepin against the RUVBL2 protein were determined with BIA evaluation software (GE healthcare). […] Immunoprecipitated protein complex was then washed 3 times with IP lysis buffer, boiled and analyzed with western blot. […]

T1 sequence (Q9Y230 whole entry): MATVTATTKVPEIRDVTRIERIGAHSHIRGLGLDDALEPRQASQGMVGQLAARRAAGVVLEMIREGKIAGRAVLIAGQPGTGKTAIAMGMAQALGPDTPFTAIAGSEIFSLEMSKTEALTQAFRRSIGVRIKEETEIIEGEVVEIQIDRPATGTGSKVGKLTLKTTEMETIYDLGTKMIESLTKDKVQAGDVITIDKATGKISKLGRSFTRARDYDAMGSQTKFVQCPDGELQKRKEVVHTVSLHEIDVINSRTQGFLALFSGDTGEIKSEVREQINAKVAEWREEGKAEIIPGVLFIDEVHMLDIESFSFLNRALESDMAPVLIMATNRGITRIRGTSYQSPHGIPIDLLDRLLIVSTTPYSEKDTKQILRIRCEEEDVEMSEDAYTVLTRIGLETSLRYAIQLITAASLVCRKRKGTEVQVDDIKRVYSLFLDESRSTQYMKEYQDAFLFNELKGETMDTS

`Nc1ncnc2c1ncn2[C@@H]1O[C@H](CO)C[C@H]1O` [Cordycepin, 3′-deoxy-adenosine] was tested, and the “interaction between Ruvbl2 and Bmal1, or Cry1 with Bmal1” value was “can be disassociated” and the “interaction between Ruvbl2 with Cry1 or CDK9” value was “is not disassociated”.
